Test results: patent publication US20210038515A1 (Azurity Pharmaceuticals, Inc., priority 2014, published 2021)

Assays:
[1] = system: Bifidobacterium adolescentis; assay: Agar dilution test, other anaerobic organisms; type: cell-based; conditions: for MIC, AV (average): average of triplicate; for MIC, VAN-1: replicate 1; for MIC, VAN-2: replicate 2; for MIC, VAN-3: replicate 3
[2] = system: Bacteroides fragilis; assay: Agar dilution test, other anaerobic organisms; type: cell-based; conditions: for MIC, AV (average): average of triplicate; for MIC, VAN-1: replicate 1; for MIC, VAN-2: replicate 2; for MIC, VAN-3: replicate 3

CN[C@H](CC(C)C)C(=O)N[C@H]1C(=O)N[C@@H](CC(N)=O)C(=O)N[C@H]2C(=O)N[C@H]3C(=O)N[C@H](C(=O)N[C@H](C(=O)O)c4cc(O)cc(O)c4-c4cc3ccc4O)[C@H](O)c3ccc(c(Cl)c3)Oc3cc2cc(c3O[C@@H]2O[C@H](CO)[C@@H](O)[C@H](O)[C@H]2O[C@H]2C[C@](C)(N)[C@H](O)[C@H](C)O2)Oc2ccc(cc2Cl)[C@H]1O.Cl [Sigma]
MIC, AV (average) ([1]; Bif. adolescentis RMA 21317): 1 µg/mL | MIC, VAN-1 ([1]; Bif. adolescentis RMA 21317): 1 µg/mL | MIC, VAN-2 ([1]; Bif. adolescentis RMA 21317): 1 µg/mL | MIC, VAN-3 ([1]; Bif. adolescentis RMA 21317): 1 µg/mL | MIC, AV (average) ([1]; Bif. adolescentis RMA 21531): 3 µg/mL | MIC, VAN-1 ([1]; Bif. adolescentis RMA 21531): 0.5 µg/mL | MIC, VAN-2 ([1]; Bif. adolescentis RMA 21531): 1 µg/mL | MIC, VAN-3 ([1]; Bif. adolescentis RMA 21531): 1 µg/mL | MIC, AV (average) ([1]; Bif. adolescentis RMA 21551): 1 µg/mL | MIC, VAN-1 ([1]; Bif. adolescentis RMA 21551): 1 µg/mL | MIC, VAN-2 ([1]; Bif. adolescentis RMA 21551): 1 µg/mL | MIC, VAN-3 ([1]; Bif. adolescentis RMA 21551): 1 µg/mL | MIC, AV (average) ([1]; Bif. adolescentis RMA 21680): 1 µg/mL | MIC, VAN-1 ([1]; Bif. adolescentis RMA 21680): 1 µg/mL | MIC, VAN-2 ([1]; Bif. adolescentis RMA 21680): 1 µg/mL | MIC, VAN-3 ([1]; Bif. adolescentis RMA 21680): 1 µg/mL | MIC, AV (average) ([1]; Bif. adolescentis RMA 21703): 1 µg/mL | MIC, VAN-1 ([1]; Bif. adolescentis RMA 21703): 1 µg/mL | MIC, VAN-2 ([1]; Bif. adolescentis RMA 21703): 1 µg/mL | MIC, VAN-3 ([1]; Bif. adolescentis RMA 21703): 1 µg/mL | MIC, AV (average) ([2]; B. fragilis RMA 26978): >16 µg/mL | MIC, VAN-1 ([2]; B. fragilis RMA 26978): >16 µg/mL | MIC, VAN-2 ([2]; B. fragilis RMA 26978): >16 µg/mL | MIC, VAN-3 ([2]; B. fragilis RMA 26978): >16 µg/mL | MIC, AV (average) ([2]; B. fragilis RMA 26979): >16 µg/mL | MIC, VAN-1 ([2]; B. fragilis RMA 26979): >16 µg/mL | MIC, VAN-2 ([2]; B. fragilis RMA 26979): >16 µg/mL | MIC, VAN-3 ([2]; B. fragilis RMA 26979): >16 µg/mL | MIC, AV (average) ([2]; B. fragilis RMA 26980): >16 µg/mL | MIC, VAN-1 ([2]; B. fragilis RMA 26980): >16 µg/mL | MIC, VAN-2 ([2]; B. fragilis RMA 26980): >16 µg/mL | MIC, VAN-3 ([2]; B. fragilis RMA 26980): >16 µg/mL | MIC, AV (average) ([2]; B. fragilis RMA 26981): >16 µg/mL | MIC, VAN-1 ([2]; B. fragilis RMA 26981): >16 µg/mL | MIC, VAN-2 ([2]; B. fragilis RMA 26981): >16 µg/mL | MIC, VAN-3 ([2]; B. fragilis RMA 26981): >16 µg/mL | MIC, AV (average) ([2]; B. fragilis RMA 26982): >16 µg/mL | MIC, VAN-1 ([2]; B. fragilis RMA 26982): >16 µg/mL | MIC, VAN-2 ([2]; B. fragilis RMA 26982): >16 µg/mL | MIC, VAN-3 ([2]; B. fragilis RMA 26982): >16 µg/mL
